The source of these data is patent US7879795B2, “Enhancement of tigecycline potency using efflux pump inhibitors” (Mpex Pharmaceuticals, Inc., priority 2004, dated 2011).

In data set [1] the test system is P. aeruginosa, PAM1723, overexpressing the MexAB-OprM efflux pump. Nature of the data set: Levofloxacin potentiation checkerboard assay (broth microdilution). The class given is cell-based. The settings on record: for MPC8: EPI concentration necessary to increase susceptibility to levofloxacin eight-fold. In short, it runs like this: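 Checkerboard of levofloxacin against efflux pump inhibitors (EPIs) in Mueller-Hinton broth (MHB), with the EPIs titrated down the rows. Plates were incubated 20 h at 35 °C; growth was read at 650 nm and also scored visually.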

Data set [2] in a line: In vitro stability in rat serum and tissue homogenates (LC/MS/MS). The settings on record: for stability in tissue homogenates at pH lowered to about 6 versus no pH change: rat kidney, liver, lung homogenates, acetic acid. It counts as in vitro ADME. On the procedure:
To test the stability of the compounds in vitro, samples were prepared and analyzed by LC/MS/MS according to the following procedure.
Homogenization: A chunk of fresh tissue was weighed and mixed with saline at 1:1 ratio (w/v) in a 12×75 mm polypropylene round bottom tube. The mixture was homogenized with a Polytron homogenizer (on ice, 3×10 seconds with 10 second intervals at the setting of 7).
Incubation and TCA-precipitation: An appropriate amount of a tissue homogenate was pre-warmed at 37° C. for 2 minutes in an Eppendorf tube. The compound to be tested was added to the tube to a final concentration of 2 μg/ml, mixed, and a 60 μl aliquot was immediately taken (as 0 hour sample) and mixed with 120 μl of 4% TCA (trichloroacetic acid) in an Eppendorf tube. The temperature of the tube containing the rest of the tissue sample was returned to 37° C. for incubation. Later, samples were taken as scheduled and mixed with TCA as described above. Plasma and lavage samples were directly incubated with the compounds without addition of saline and homogenization.
LC/MS/MS sample vial preparation: TCA-precipitated sample tubes were vortexed for 30 seconds, centrifuged in a microfuge at top speed (13.2 k rpm) for 5 minutes. The supernatant was collected. The pH was neutralized to about 3.5 with ammonium acetate buffer. The sample (45 μl) was transferred to a glass LC/MS/MS vial (Kimble, 11 mm, 1.5 ml) and 5 μl of an internal standard was added to a final concentration of 500 ng/ml. LC/MS/MS analysis was performed in Chemistry Department of San Diego State University.
LC/MS/MS protocol: Thermo-Finnigan TSQ Quantum triple sector mass spectrometer with electrospray (ESI) ionization was used to analyze the samples. The operation conditions were: Mobile phase of pH 3.00 water/formic acid: acetonitrile-methanol (45%:5%:50% by volume); Thermo-Keystone Betabasic C-18 column (2.1 mm×50 mm) operated at 0.100 mL/min.
Many proteases responsible for degrading EPI compounds are located in […]. Lysozymes typically have an acidic pH (about 4.8-5), whereas the pH in tissue homogenates that were prepared was higher (kidney, pH 6.8; liver, pH 6.6; and lung, pH 7.5). To test the effect of tissue homogenates closer to physiological conditions, the pH was lowered to about 6 by adding acetic acid to the tissue homogenates and compound stability was tested. FIG. 2 depicts the stability of compounds 1 and 3 at different pH. […] The pH-dependent degradation of compound 3 was especially evident in kidney homogenates.
FIG. 4 is a bar graph depicting the stability of compound 3 in the supernatant and pellet of kidney tissue homogenates.

Data set [3] concerns P. aeruginosa overexpressing (strain PAM1723) or lacking (PAM1626) efflux pumps. As to the kind of experiment: Stability in P. aeruginosa cultures. The class given is in vitro ADME. The settings on record: 50 μg/ml, PAM1723 and PAM1626. Here is the method:
Overnight cultures of two different strains of P. aeruginosa overexpressing (strain PAM1723) or lacking (PAM1626) efflux pumps were incubated with compounds 1 or 3 at 50 μg/ml for various times. Compounds were extracted using 4% TCA and analysed by LC/MC/MC.

The test system of data set [4] is P. aeruginosa strain PAM1032 overexpressing MexAB-OprM efflux pump. Nature of the data set: Mouse sepsis model of PA infection (ED50 of levofloxacin). It counts as in vivo. Here is the method: P. aeruginosa strain PAM1032 overexpressing MexAB-OprM efflux pump was grown overnight in Mueller-Hinton Broth (MHB). The next day, the overnight culture was diluted in fresh MHB and was allowed to re-grow to ˜10^8 CFU/mL (OD600˜0.3). The culture was spun down, washed twice with phosphate buffered saline (PBS) and re-suspend in PBS to ˜1.2×10^7 CFU/mL (OD=0.12). Next this culture was mixed 1:1 with 14% hog-gastric mucin in PBS to give a final inoculum of […].
The effect of the EPI at 50 mg/kg was determined according to the following experimental design: […]

The subject of data set [5] is strain 29A2 of P. aeruginosa overexpressing MexAB-OprM efflux pump. Nature of the data set: Neutropenic mice lung model of PA infection. The class given is in vivo. The settings on record: for bacterial load in infected lungs, EPI with levofloxacin: levofloxacin 30 mg/kg SQ plus EPI IP. On the procedure:
Neutropenia was induced by cyclophosphamide 100 mg/kg IP on days 3 and 1 prior to infection. The strain 29A2 of P. aeruginosa overexpressing MexAB-OprM efflux pump was grown overnight in Mueller-Hinton Broth (MHB). The next day overnight culture was diluted in fresh MHB and was allowed to re-grow to ˜10^8 CFU/mL (OD600˜0.3). The culture was spun down, washed twice with phosphate buffered saline (PBS) and re-suspended in PBS to ˜4×10^7 CFU/mL. 50 μl of inoculum was used for intratracheal instillation of mice, which were anesthetized with sevoflourane/oxygen. […] Four mice from each treatment group were euthanized at various times after the start of treatment. The lungs were removed aseptically, homogenized in saline, and immediately plated to determine bacterial load (CFU/ml) in infected lungs. P. aeruginosa is plotted as a function of time in FIG. 20.

Data set [6] deals with strains of Klebsiella, Enterobacter and Citrobacter. Nature of the data set: Potentiation of tigecycline against enterobacteria with decreased susceptibility to tigecycline. It counts as cell-based. The settings on record: in words. Here is the method:
To further characterize the clinical potential of tigecycline/EPI combinations, the microbiological activity of tigecycline in combination with compound 21 was investigated using clinical isolates of P. aeruginosa and other gram-negative bacteria. In several experiments, described below, the impact of a fixed concentration of compound 21 (2.5 μg/ml) on susceptibility to tigecycline was determined.
The impact of compound 21 on the activity of tigecycline against representative members of Enterobacteriacaea was also tested.

The subject of data set [7] is Enterobacteriaceae, Acinetobacter, Burkholderia, Stenotrphomonas, Staphylococcus. The settings on record: Example 86, written in present tense.
Where [8] appears, read: EPI 0 μg/ml (levofloxacin alone).

Take `NCCC[C@H](N)C(=O)N[C@H](CCc1ccccc1)C(=O)Nc1cnc2ccccc2c1` [Compound 3, 2-(S),5-Diamino-pentanoic acid [3-phenyl-1-(R)-(quinolin-3-ylcarbamoyl)-propyl]-amide]: the “Antibiotic (levofloxacin) MIC in the presence of EPI” value (“Antibiotic (levofloxacin) MIC” below) in data set [1] (setting [8]) came out at 2 µg/mL; in data set [1] (EPI 1.25 μg/ml), 2 µg/mL; in data set [1] (EPI 5 μg/ml) it was 0.25 µg/mL; in data set [1] (EPI 10 μg/ml), 0.03 µg/mL; in data set [1] (EPI 20 μg/ml) it was 0.015 µg/mL; in data set [1] (EPI 40 μg/ml), 0.015 µg/mL. Moreover, the “Antibiotic (levofloxacin) MIC” value worked out at 0.015 µg/mL in data set [1] (EPI 80 μg/ml) and 1 µg/mL in data set [1] (EPI […]). In data set [1], the MPC8 was determined as 10 µg/mL. The “stability in supernatant versus pellet of kidney tissue homogenates” value in data set [2] (after 5 min. centrifugation) was “Greater instability”. Also, the “stability in rat serum” value in data set [2] (in words) is “at least as stable as 1”. Moreover, the “stability in supernatant of rat kidney tissue homogenates” value in data set [2] (in words) is given as “supernatant instability was selective to compound 3”. For the same molecule, the “stability in tissue homogenates at pH lowered to about 6 versus no pH change” value in data set [2] is recorded as “degraded faster”. The “stability in kidney and liver” value in data set [2] (rat tissue homogenates, in words) is “more unstable than 1”. Also, the “stability in cultures of tested bacterial strains” value in data set [3] was “stable”. Moreover, the “decrease in ED50 of levofloxacin” value in data set [4] (increasing concentrations of EPI, dose-dependent) is given as “up to 4 fold”. In addition, the “bacterial load in infected lungs, EPI with levofloxacin” value in data set [5] is recorded as “dose-dependent efficacy in levofloxacin potentiation”.
With `NCCC[C@@H](N)C(=O)N[C@H](CCc1ccccc1)C(=O)Nc1cnc2ccccc2c1` [Compound 1, 2-(R),5-Diamino-pentanoic acid [3-phenyl-1-(R)-(quinolin-3-ylcarbamoyl)-propyl]-amide], the “Antibiotic (levofloxacin) MIC” value in data set [1] (setting [8]) turned out to be 2 µg/mL; in data set [1] (EPI 1.25 μg/ml), 2 µg/mL; in data set [1] (EPI 5 μg/ml) it was 0.5 µg/mL; in data set [1] (EPI 10 μg/ml), 0.06 µg/mL; in data set [1] (EPI 20 μg/ml), 0.03 µg/mL; in data set [1] (EPI 40 μg/ml), 0.015 µg/mL. Moreover, the entries for the “Antibiotic (levofloxacin) MIC” value in data set [1] (EPI 80 μg/ml) and in data set [1] (EPI […]) were 0.008 µg/mL and 1 µg/mL, respectively. Besides, the MPC8 in data set [1] was 10 µg/mL. In addition, the “compound left after 16 hrs of incubation” value in data set [2] (all of the tissues tested (rat serum, tissue homogenates), 37° C., 2 μg/ml) is 70-80%. Further, the “stability in supernatant of rat kidney tissue homogenates” value in data set [2] (in words) is “neither compound 1 nor compound 4 show any instability”. The “stability in tissue homogenates at pH lowered to about 6 versus no pH change” value in data set [2] was “essentially unchanged”. Besides, the “stability in all of the tissues tested” value in data set [2] (rat, in words) is given as “highly stable”. In data set [3], the “stability in cultures of tested bacterial strains” value was “stable”. Further, the “decrease of ED50 of levofloxacin” value in data set [4] (EPI at 50 mg/kg IP, survival at 24 hours) was found to be 4 fold. The “growth of P. aeruginosa in infected lungs, EPI alone” value in data set [5] (EPI 100 mg/kg IP alone (0/100) versus no addition) is given as “No difference in growth”. Moreover, the “bacterial load in infected lungs, EPI with levofloxacin” value in data set [5] was “significantly decreased bacterial load”.
`NCCC[C@H](N)C(=O)N[C@H](Cc1ccc(C(F)(F)F)cc1)C(=O)Nc1cnc2ccccc2c1` [Compound 21, 2-(S),5-Diamino-pentanoic acid [1-(R)-(quinolin-3-ylcarbamoyl)-2-(4-trifluoromethyl-phenyl)-ethyl]amide]: the “potentiation of tigecycline against strains with decreased susceptibility” value in data set [6] was “potentiated tigecycline”. Moreover, in data set [7], the “effect on tigecycline resistance and emergence of resistance” value was “reduces tigecycline resistance and emergence of resistance”.
